How the values were obtained:
[1] = Solubility (comparison in words); format: physicochemical
[2] = test system: RCC4/VHL; test: XTT IC50 assay, selectivity RCC4 versus RCC4 with VHL-reintroduced; format: cell-based, human; conditions: selectivity ratio of XTT IC50 values, RCC4 vs RCC4/VHL
How it was run: (§1)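 RCC4 parental and VHL-reintroduced RCC4/VHL cells (DMEM, 10% FCS) treated with serially diluted drug for four days. Viability by XTT (0.3 mg/mL) with N-methyl dibenzopyrazine methyl sulfate, 1–2 h at 37 °C, absorbance 450 nm; IC50 by linear interpolation.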

[3] = test system: ACHN shVHL; test: Xenograft tumor growth, ACHN expressing shRNA to VHL; format: in vivo, mice; conditions: daily systemic treatment ten to fourteen days, vs vehicle
Procedure: (§2) Five million cells were injected into the flanks of nu/nu mice (4-6 weeks old males) and allowed to grow to approximately 50 mm^3. The mice were injected daily by intra-peritoneal to deliver either vehicle or drug. Tumors were measured every other day and tumor volume was calculated as 0.5 length by width squared.
(§3) In Vivo Studies and Immunohistochemistry. All experiments were approved by Stanford's Administrative Panel on Laboratory Animal Care (APLAC) and in accordance with both institutional and national guidelines. Five million cells were implanted subcutaneously into the flanks of nude mice (4-6 weeks old)(Charles River Laboratories). Tumors were measured with calipers. Volume was calculated by the following formula: width^2×0.5 length. Once tumors reached an average size of >20 mm^3, mice were randomized into vehicle (DMSO diluted in 16% cremaphor EL/PBS) or treated groups. Mice were treated with compound 85 (11.6 mg/kg for the first 3 days, followed by 7.8 mg/kg for the 7-9 days). Five-micron sections were cut for immunohistochemistry. Sections were counterstained with hematoxylin and eosin. For 2-[^18F]-fluoro-2-deoxy-glucose-positron emission tomography imaging, mice bearing tumors were fasted overnight. The next day, the mice were anesthetized with 2% isoflurane and injected intraperitoneally with 250 μCi of FDG. […]

[4] = test system: 786-O; test: Xenograft tumor growth, 786-O; format: in vivo, mice; conditions: daily, 11.6 mg/kg for 3 days then 7.8 mg/kg, ten to fourteen days, vs vehicle
Procedure: as §2, §3

[5] = test system: 786-O; test: FDG-PET imaging of 786-O xenografts; format: in vivo, mice
Procedure: (§4) FIG. 5A-E In vivo monitoring and efficacy of compound 47. […] 786-O, a renal clear cell carcinoma with a naturally occurring VHL mutation, were implanted subcutaneously into the flanks of CD-1 nude mice. Representative axial cross section of a mouse prior to treatment (left) and following three daily i.p. injections with compound 85 (11.6 mg/kg)(right), overlaid over CT scan. (B) Quantitatively, compound 85 inhibits FDG-PET in mouse xenografts. Quantification of FDG-PET inhibition by compound 85 as determined by the 90th percentile ROI for percent injected dose per gram (% ID/g) (*p<0.01). (C) Compound 85 is not toxic to normal tissues. (a, b) Kidney of vehicle- and compound 85-treated animals. (c, d) Spleen of vehicle- and compound 85-treated animals. (e, f) Liver of vehicle- and compound 85-treated animals. (g, h) Heart of vehicle- and compound 85-treated animals. (i, j) Salivary gland of vehicle- and compound 85-treated animals. (k, l) Brain of vehicle- and compound 85-treated animals. Scale bar represents 100 microns. (D) Compound 85 delays tumor growth. 786-O tumor-bearing mice were treated daily with vehicle or compound 85 (11.6 mg/kg for the first 3 days, followed by 7.8 mg/kg for the next week)(*p<0.005). (E) Compound 85 delays tumor growth in cells that have lost VHL. ACHN cells expressing a short hairpin RNA to VHL were implanted subcutaneously into the flanks of immunocompromised mice. Once tumors reached an average of >20 mm^3, mice were treated daily with compound 85 or vehicle (*p<0.05). All error bars represent the standard error of the mean.
In Vivo Studies and Immunohistochemistry. All experiments were approved by Stanford's Administrative Panel on Laboratory Animal Care (APLAC) and in accordance with both institutional and national guidelines. Five million cells were implanted subcutaneously into the flanks of nude mice (4-6 weeks old)(Charles River Laboratories). Tumors were measured with calipers. Volume was calculated by the following formula: width^2×0.5 length. […]

[6] = test system: ACHN; test: Xenograft tumor growth, ACHN with wild-type VHL; format: in vivo, mice; conditions: daily treatment vs vehicle control
Procedure: as §2, §3

[7] = Normal tissue toxicity (histology); format: in vivo; conditions: treated mice; kidney, spleen, liver, heart, salivary gland, brain
Procedure: as §4, with “(E) Compound 85 delays tumor growth in cells that have lost VHL. ACHN cells expressing a short hairpin RNA to VHL were implanted subcutaneously into the flanks of immunocompromised mice. Once tumors reached an average of >20 mm^3, mice were treated daily with compound 85 or vehicle (*p<0.05). All error bars represent the standard error of the mean.” left out
In Vivo Studies and Immunohistochemistry. […] Tumors were measured with calipers. Volume was calculated by the following formula: width^2×0.5 length. […]

[8] = test system: RCC4; test: XTT IC50 / viability assay, RCC4 cells; format: cell-based, human; conditions: Homo sapiens, RCC4, 96 h; XTT assay, four days
How it was run: as §1

In the case of `CN1CCN(c2ccc(S(=O)(=O)NCc3ccc(C(=O)Nc4cccnc4)cc3)cc2)CC1` [Example 76, 4-((4-(4-Methylpiperazin-1-yl)phenylsulfonamido)methyl)-N-(pyridin-3-yl)benzamide], the “solubility relative to compound 47” value [1] is reported as “more soluble”, the “Ratio (RCC4:RCC/VHL)” value [2] is reported as “c (“c” reflects a ratio of >100)” and the “tumor growth, ACHN shVHL xenografts” value [3] is reported as “markedly delayed tumor growth”. For the same compound, the “tumor growth, 786-O xenografts” value [4] was “markedly delayed tumor growth”, the “glucose uptake within tumors by FDG-PET” value ([5]; 786-O xenografts in CD-1 nude mice, three daily i.p. doses (11.6 mg/kg)) was “striking decrease in glucose uptake within the tumors” and the “tumor FDG uptake, quantified (% ID/g)” value ([5]; 786-O xenografts, FIG. 5B) was “consistently decreased FDG uptake”. The “tumor growth, ACHN wild-type VHL xenografts” value [6] was “grew at similar rates”, the normal tissue toxicity [7] was “no normal tissue toxicity” and the IC50 [8] was < 1 µM.
